Measured values as given in patent publication US20180036382A1, “FORMULATIONS FOR ORAL ADMINISTRATION OF ACTIVE AGENTS WITH CONTROLLED ABSORPTION PROFILE” (Entera Bio Ltd., priority 2015, published 2018).

What was measured:
Assay type in all cases: in vivo, human
[1] = Phase I clinical trial of oral teriparatide formulations, plasma PTH (1-34) versus subcutaneous injection (Example 2)
Method: A Phase I clinical study of exemplary oral formulations comprising teriparatide (parathyroid hormone (1-34)) was conducted at the Hadassah Clinical Research Center. 42 healthy volunteers were included throughout the study.
The formulation was composed of teriparatide (200, 400, 680, 1400 or 1800μ.g), SNAC (sodium 8-N-(2-hydroxybenzoyl) aminocaprylate), soybean trypsin inhibitor and magnesium stearate.
Tablets were administered in the morning after an 8-hour overnight fast and immediately followed by 150 ml of water. At each visit a standard meal was provided 3 hours after drug administration.
To determine parathyroid hormone concentrations, blood samples (4 ml each) were drawn via an indwelling catheter from the forearm vein at predetermined time points. The cannula was flushed with 1.5 ml normal saline after each sampling. In addition, to avoid sample dilution, 1 ml of blood was drawn and discarded before the next sample. The blood samples were taken at following times: baseline (predose), 15 minutes, 30 minutes, 45 minutes, 60 minutes, 75 minutes, 90 minutes, 105 minutes, 2 hours, 3 hours, 4 hours and 5 hours post-administration. Each blood sample was collected into a single tube containing EDTA (ethylenediaminetetraacetic acid) and placed on ice. Within 15 minutes of blood collection, samples were centrifuged for 10 minutes at 4° C. (2500 rotations per minute) and the plasma was separated and divided into two or three aliquots. Each aliquot was transferred into appropriately labeled polypropylene tubes and stored at approximately −20° C. pending analysis. PTH (1-34) levels were measured using an IDS-iSYS automated assay for the measurement of intact PTH (1-34) in human plasma or serum.
Oral administration of teriparatide was performed as described hereinabove at doses of 200, 400, 680, 1400 or 1800 μg. The Cmax of PTH (1-34) for each orally administered dose was compared with the Cmax of PTH (1-34) for subcutaneous injection of 20 μg teriparatide.

[2] = system: cAMP, a known marker of PTH activity; experiment: Plasma cAMP levels after teriparatide administration (marker of PTH activity); settings: FIG. 4
Method: In addition, plasma levels of cAMP, a known marker of PTH activity, were determined in order to confirm biological activity of administered PTH. cAMP plasma levels were measured following oral administration of 680 μg teriparatide or subcutaneous injection of 20 μg teriparatide, as described hereinabove.

[3] = Pharmacokinetic study of oral teriparatide tablet in healthy volunteers (Example 1)
Method: An open label comparative pharmacokinetic study was performed in healthy volunteers over the course of 3 months. Each volunteer received—in each of two visits—the same oral tablet containing 0.75 mg of teriparatide, a recombinant form of parathyroid hormone (1-34).
The formulation was composed of teriparatide (0.75 mg), SNAC (sodium 8-N-(2-hydroxybenzoyl) aminocaprylate), soybean trypsin inhibitor (SBTI) and a small amount of magnesium stearate.
Tablets were administered in the morning after an 8-hour overnight fast and immediately followed by 150 ml of water. At each visit a standard meal was provided 3 hours after drug administration. […] There was a two weeks period between the visits.
To determine parathyroid hormone (1-34) (PTH(1-34)) concentrations, blood samples (4 ml each) were drawn via an indwelling catheter from the forearm vein at predetermined time points during each visit. The cannula was flushed with 1.5 ml normal saline after each sampling. In addition, to avoid sample dilution, 1 ml of blood was drawn and discarded before the next sample. The blood samples were taken at following times: baseline (predose), 10 minutes, 15 minutes, 20 minutes, 30 minutes, 45 minutes, 60 minutes, 75 minutes, 90 minutes, 105 minutes, 2 hours, 3 hours, 4 hours and 5 hours post-administration. Each blood sample was collected into a single tube containing EDTA (ethylenediaminetetraacetic acid) and placed on ice. Within 15 minutes of blood collection, samples were centrifuged for 10 minutes at 4° C. (2500 rotations per minute) and the plasma was separated and divided into two or three aliquots. Each aliquot was transferred into appropriately labeled polypropylene tubes and stored at approximately −20° C. pending analysis. PTH (1-34) levels were measured using an IDS-iSYS automated assay for the measurement of intact PTH (1-34) in human plasma or serum.

For `CC[C@H](C)[C@H](NC(=O)[C@H](CCC(=O)O)NC(=O)[C@H](CO)NC(=O)[C@@H](NC(=O)[C@@H](N)CO)C(C)C)C(=O)N[C@@H](CCC(N)=O)C(=O)N[C@@H](CC(C)C)C(=O)N[C@@H](CCSC)C(=O)N[C@@H](Cc1cnc[nH]1)C(=O)N[C@@H](CC(N)=O)C(=O)N[C@@H](CC(C)C)C(=O)NCC(=O)N[C@@H](CCCCN)C(=O)N[C@@H](Cc1cnc[nH]1)C(=O)N[C@@H](CC(C)C)C(=O)N[C@@H](CC(N)=O)C(=O)N[C@@H](CO)C(=O)N[C@@H](CCSC)C(=O)N[C@@H](CCC(=O)O)C(=O)N[C@@H](CCCN=C(N)N)C(=O)N[C@H](C(=O)N[C@@H](CCC(=O)O)C(=O)N[C@@H](Cc1c[nH]c2ccccc12)C(=O)N[C@@H](CC(C)C)C(=O)N[C@@H](CCCN=C(N)N)C(=O)N[C@@H](CCCCN)C(=O)N[C@@H](CCCCN)C(=O)N[C@@H](CC(C)C)C(=O)N[C@@H](CCC(N)=O)C(=O)N[C@@H](CC(=O)O)C(=O)N[C@H](C(=O)N[C@@H](Cc1cnc[nH]1)C(=O)N[C@@H](CC(N)=O)C(=O)N[C@@H](Cc1ccccc1)C(=O)O)C(C)C)C(C)C` [teriparatide], the “decline of PTH levels following oral administration compared with subcutaneous administration” value ([1]; oral 1800 μg versus subcutaneous 20 μg teriparatide, FIG. 3) was “declined considerably more rapidly”, the “dose dependence of Cmax of PTH (1-34) following oral administration” value ([1]; oral doses 200, 400, 680, 1400 or 1800 μg teriparatide, FIG. 2) was “proportional to the dose” and the “oral dose providing a Cmax equivalent to that of subcutaneous administration of 20 μg teriparatide” value ([1]; oral tablets with SNAC, soybean trypsin inhibitor, magnesium stearate, FIG. 2) was “roughly 750 μg”. The “plasma cAMP levels” value ([2]; oral administration of 680 μg teriparatide, compared with subcutaneous 20 μg) was “increased plasma cAMP levels to a similar degree”, the “plasma cAMP levels” value ([2]; subcutaneous administration of 20 μg teriparatide, compared with oral 680 μg) was “increased plasma cAMP levels to a similar degree” and the “Cmax after 1st administration” value ([3]; oral tablet 0.75 mg teriparatide with SNAC, SBTI, magnesium stearate, fasted healthy volunteers, plasma PTH (1-34), one table row per individual subject (A, B, C)) was 35 picogram/ml. The “time for parathyroid hormone (1-34) levels to return to baseline levels after tablet administration” value ([3]; oral tablet 0.75 mg teriparatide, FIGS. 1A-1C) was at most 60 min, the “time after administration at which peak concentration (Cmax) occurred” value ([3]; oral tablet 0.75 mg teriparatide, all subjects and administrations, Table 3, FIGS. 1A-1C) was at most 20 min and the “Cmax after 2nd administration” value ([3]; same oral tablet 0.75 mg teriparatide, second visit two weeks later, plasma PTH (1-34), one table row per individual subject (A, B, C)) was 36 picogram/ml.
